Holding throughout (assay type): functional, cell-based
The subject of assay [1] is HL-60. In words: Induction of apoptosis in human HL60 cells assessed as activation of caspase 3 at 0.3 uM after 2 hrs by Western blot analysis in presence of caspase 9 inhibitor […]. A general note: In western blotting, separated proteins are transferred to a membrane and probed.
For assay [2], the system named is HL-60. Kind of assay: Induction of apoptosis in human HL60 cells assessed as nuclear fragmentation at 0.3 uM after 4 hrs using DAPI/PI by confocal laser microscopy analysis.
The subject of assay [3] is HL-60. In words: Induction of apoptosis in human HL60 cells assessed as necrotic cell death at 30 uM after 4 hrs using DAPI/PI by confocal laser microscopy analysis.
Assay [4] concerns HL-60. Kind of assay: Induction of apoptosis in human HL60 cells assessed as DNA ladder formation at 0.3 uM after 4 hrs by DNA electrophoresis.
For assay [5], the system named is HL-60. Kind of assay: Induction of apoptosis in human HL60 cells assessed as DNA ladder formation at 30 uM after 4 hrs by DNA electrophoresis.
For assay [6], the system named is HL-60. Kind of assay: Induction of apoptosis in human HL60 cells assessed as increase of cellular ROS level.
In assay [7] the test system is HL-60. Kind of assay: Induction of apoptosis in human HL60 cells assessed as activation of caspase 3 at 0.3 uM after 2 hrs by Western blot analysis.
The test system of assay [8] is HL-60. In words: Induction of apoptosis in human HL60 cells assessed as activation of caspase 3 at 0.3 uM after 2 hrs by Western blot analysis in presence of caspase inhibitor Z-VAD.
In assay [9] the test system is HL-60. In words: Induction of apoptosis in human HL60 cells at 0.3 uM in presence of caspase 8 inhibitor Z-IETD.
Assay [10] concerns HL-60. In words: Induction of apoptosis in human HL60 cells at 0.3 uM in presence of caspase 9 inhibitor […].
The subject of assay [11] is HL-60. Kind of assay: Induction of apoptosis in human HL60 cells assessed as activation of caspase 3 at 0.3 uM after 2 hrs by Western blot analysis in presence of caspase 8 inhibitor Z-IETD.
Assay [12] deals with HL-60. Kind of assay: Potentiation of FAS-ligand-induced apoptosis in human HL60 cells at 30 uM.
The test system of assay [13] is HL-60. In words: Potentiation of TNF-alpha-ligand-induced apoptosis in human HL60 cells at 30 uM.
Assay [14] concerns HL-60. Kind of assay: Induction of apoptosis in human HL60 cells assessed as reduction of cell viability at up to 30 uM after 4 hrs by alamar blue assay. (Alamar Blue is a resazurin reagent that responds to reducing activity.)
Assay [15] relates to HL-60. Kind of assay: Induction of apoptosis in human HL60 cells assessed as reduction of cell viability after 4 hrs by alamar blue assay.

Each structure is given as a SMILES string. Active and inactive are the calls of the source. No cut-off for these calls is given here.

These results are taken from ChEMBL document CHEMBL1221299, “Unnatural enantiomer of chaetocin shows strong apoptosis-inducing activity through caspase-8/caspase-3 activation” (Bioorg Med Chem Lett, 2010).

As to `CN1C(=O)[C@]23C[C@@]4([C@@]56C[C@]78SS[C@](CO)(C(=O)N7[C@@H]5Nc5ccccc56)N(C)C8=O)c5ccccc5N[C@H]4N2C(=O)[C@@]1(CO)SS3`, the result in the assay on HL-60 [1], in the assay on HL-60 [2], in the assay on HL-60 [3], in the assay with HL-60 [4], in the assay with HL-60 [7] and in the assay with HL-60 [10] was Active. In addition, the result in the assay on HL-60 [5], in the assay on HL-60 [6], with HL-60 [8], in the assay on HL-60 [9], in the assay on HL-60 [11] and in the assay on HL-60 [12] was inactive. Further, the outcome in the assay on HL-60 [13] was inactive.

With `CN1C(=O)[C@H]2C[C@]3([C@]45C[C@@H]6C(=O)N(C)[C@H](CO)C(=O)N6[C@H]4Nc4ccccc45)c4ccccc4N[C@@H]3N2C(=O)[C@H]1CO`, the result in the assay with HL-60 [14] was inactive.

For the compound `CN1C(=O)[C@@]23C[C@]4([C@]56C[C@@]78SS[C@@](CO)(C(=O)N7[C@H]5Nc5ccccc56)N(C)C8=O)c5ccccc5N[C@@H]4N2C(=O)[C@]1(CO)SS3`, the Activity entry with HL-60 [15] is “Dose-dependent effect”. Also, the result in the assay with HL-60 [2], in the assay on HL-60 [3] and in the assay on HL-60 [7] was Active. Further, the outcome in the assay with HL-60 [4] and in the assay on HL-60 [6] was inactive.
